These results are taken from publication PMC5085761 (International Journal of Molecular Sciences, 2016).

In one data set the target is T1, OATP1B3 (Homo sapiens, UniProt Q9NPD5).
T1 construct: host or cells: HEK293
T1 sequence (Q9NPD5 1-702): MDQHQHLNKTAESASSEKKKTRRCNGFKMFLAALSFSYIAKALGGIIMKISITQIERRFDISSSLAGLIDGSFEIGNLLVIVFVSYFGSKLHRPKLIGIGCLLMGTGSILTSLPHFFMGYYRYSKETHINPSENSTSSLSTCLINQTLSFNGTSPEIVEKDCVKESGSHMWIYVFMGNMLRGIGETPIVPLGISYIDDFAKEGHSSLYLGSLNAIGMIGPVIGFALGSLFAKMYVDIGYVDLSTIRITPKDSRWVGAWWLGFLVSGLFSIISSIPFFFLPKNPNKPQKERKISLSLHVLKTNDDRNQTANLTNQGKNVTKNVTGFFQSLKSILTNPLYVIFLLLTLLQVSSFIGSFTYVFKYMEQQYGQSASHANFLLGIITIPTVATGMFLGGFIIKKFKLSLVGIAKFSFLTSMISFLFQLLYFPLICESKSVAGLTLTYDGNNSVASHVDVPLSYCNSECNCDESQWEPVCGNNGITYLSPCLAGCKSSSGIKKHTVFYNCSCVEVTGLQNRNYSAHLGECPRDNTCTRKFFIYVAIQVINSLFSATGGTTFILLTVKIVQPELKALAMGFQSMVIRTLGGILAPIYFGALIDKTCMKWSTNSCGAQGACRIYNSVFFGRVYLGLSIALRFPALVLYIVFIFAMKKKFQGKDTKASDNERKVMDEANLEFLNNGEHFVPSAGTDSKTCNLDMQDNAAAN
Description: [14C]fluciclovine uptake by OATP1B3-expressing cells. The class given is in vitro ADME. The note with it: OATP1B3 cells vs mock cells. As to the method: (§1) For the SLC transporter experiments, Mock Flp-in-293 cells (Flp/mock), OAT1-expressing Flp-in-293 cells (Flp/OAT1), mock HEK293 cells (HEK/mock), and OATP1B3-expressing HEK293 cells (HEK/OATP1B3) were obtained from Kanazawa University (Ishikawa, Japan). Briefly, Flp-in-293 and HEK293 cells were transfected with the appropriate plasmid DNA and selected using antibiotics (hygromycin or G-418). All cell lines were cultured in DMEM (Life Technologies Japan) supplemented with 10% (v/v) fetal bovine serum (American Type Culture Collection) and antibiotics (100 U/mL penicillin and 100 μg/mL streptomycin (Life Technologies Japan) for mock cells, 0.2 mg/mL hygromycin for Flp/OAT1 cells, and 1.2 mg/mL G-418 (Roche Diagnostics K.K., Tokyo, Japan) for HEK/OATP1B3 cells) at 37 °C under an atmosphere containing 5% CO2. […]
(§2) The experiments were performed as described previously, with minor modifications. […] The cells were lysed in 0.3 mL of 0.1N NaOH at room temperature, after which the radioactivity of each aliquot was measured as described above. The protein concentration of the cell lysate was determined with a VersaMax microplate reader (Molecular Devices Japan K.K., Osaka, Japan) or SpectraMax i3x (Molecular Devices Japan K.K.; only for OATP1B1) using a BCA Protein Assay Kit (Thermo Fisher Scientific, Kanagawa, Japan). Tracer uptake was expressed as pmol/mg protein. […]

A further data set addresses T2, OAT1 (Homo sapiens, UniProt Q4U2R8).
T2 construct: host or cells: Flp-in-293
T2 sequence (Q4U2R8 1-563): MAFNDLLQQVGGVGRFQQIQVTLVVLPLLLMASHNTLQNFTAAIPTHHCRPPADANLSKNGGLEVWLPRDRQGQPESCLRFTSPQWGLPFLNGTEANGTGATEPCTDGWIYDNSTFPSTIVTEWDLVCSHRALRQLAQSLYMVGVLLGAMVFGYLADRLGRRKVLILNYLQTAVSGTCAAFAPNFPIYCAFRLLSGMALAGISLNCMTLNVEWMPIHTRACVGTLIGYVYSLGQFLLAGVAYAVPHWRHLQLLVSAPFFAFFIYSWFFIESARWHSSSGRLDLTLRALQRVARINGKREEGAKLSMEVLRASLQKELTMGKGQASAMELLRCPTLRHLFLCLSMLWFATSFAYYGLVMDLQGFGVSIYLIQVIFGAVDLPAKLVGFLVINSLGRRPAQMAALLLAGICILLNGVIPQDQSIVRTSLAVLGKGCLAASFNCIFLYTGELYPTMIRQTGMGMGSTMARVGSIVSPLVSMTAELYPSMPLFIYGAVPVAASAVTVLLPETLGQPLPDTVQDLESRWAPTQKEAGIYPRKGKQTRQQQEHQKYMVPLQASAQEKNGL
Description: [14C]fluciclovine uptake by OAT1-expressing cells. The settings on record: OAT1 cells vs mock cells. The data set is classed as in vitro ADME. As to the method:
as §1, §2

For the compound `N[14C]1(C(=O)O)CC(F)C1` (stereo not drawn) [[^14C]fluciclovine, trans-1-amino-3-fluoro[1-^14C]cyclobutanecarboxylic acid], the drug transporter-mediated uptake entry at OATP1B3 and at OAT1 was “negligible” each time.
